Experimental data: patent US20050153381A1, “Immunocapture of mitochondrial protein complexes” (priority 2002, published 2005)

Key:
[1] = target: T1, recombinant human IF1, His-tagged (UniProt Q9UII2)
T1 sequence: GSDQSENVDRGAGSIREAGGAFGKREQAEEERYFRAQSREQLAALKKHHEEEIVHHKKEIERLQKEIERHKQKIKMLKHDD

[2] = target: T2, C-V-IP (inhibitor protein IF1), human (UniProt Q9UII2)
T2 sequence: T1 sequence

[3] = target: Complex I (Homo sapiens, UniProt P49821+P56556); conditions: normal fibroblast Complex I; DPI in reaction buffer (FIG. 28)
Chain of Complex I (P49821 21-464): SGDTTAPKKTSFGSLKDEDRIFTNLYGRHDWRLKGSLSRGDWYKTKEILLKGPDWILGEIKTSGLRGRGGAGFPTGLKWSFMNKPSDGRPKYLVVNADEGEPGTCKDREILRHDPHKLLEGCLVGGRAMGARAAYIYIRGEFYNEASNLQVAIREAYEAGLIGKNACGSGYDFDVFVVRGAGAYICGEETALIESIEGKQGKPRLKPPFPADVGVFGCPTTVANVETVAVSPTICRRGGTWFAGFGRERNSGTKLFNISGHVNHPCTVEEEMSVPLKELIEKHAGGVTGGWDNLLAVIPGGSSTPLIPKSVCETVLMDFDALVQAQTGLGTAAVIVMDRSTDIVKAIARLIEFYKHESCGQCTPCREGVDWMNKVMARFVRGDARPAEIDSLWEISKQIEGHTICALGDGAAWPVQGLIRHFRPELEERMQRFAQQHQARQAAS
Chain of Complex I (P56556 whole entry): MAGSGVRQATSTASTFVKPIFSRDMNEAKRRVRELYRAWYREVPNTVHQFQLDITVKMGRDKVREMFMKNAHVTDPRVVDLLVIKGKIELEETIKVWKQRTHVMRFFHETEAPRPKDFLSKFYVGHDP
Procedure: (§1) Mitochondria (human heart, human fibroblast or bovine heart) were solubilized at 5 mg/ml mitochondrial protein, 1% wt/vol lauryl maltoside, 100 mM NaCl, 25 mM HEPES pH 7.5, and the protease inhibitors pepstatin (0.5 μg/ml), leupeptin (0.5 μg/ml) and PMSF (1 mM). The samples were incubated at 4° C. for 30 minutes and the insoluble material removed by centrifugation at 16,000×g for 20 minutes. Solubilized mitochondria were diluted to the desired concentration in 150 mM NaCl, 50 mM Tris-HCl, pH 7.5 containing 2.5% bovine serum albumin as a blocking and stabilization agent.
(§2) After the entire sample wicked up into the nitrocellulose (approximately 15 minutes), the stick was transferred to a second well containing 50 μl of wash buffer (150 mM NaCl, 50 mM Tris-HCl, pH 7.5), which was allowed to wick up the stick (approximately 15 minutes). The absorbent pad was then removed and the entire dipstick incubated in a tube containing 3 ml wash buffer for approximately 15 minutes. The washed dipstick (with the immunocaptured OXPHOS complex of interest) was then transferred to the appropriate enzyme reaction buffer to reveal enzyme activity as described below.
Complex I. The Complex I reaction buffer solution contained 0.1 mg/ml NADH, 2.5 mg/ml NBT in 2 mM Tris-HCl, pH 7.4. […]

[4] = system: Complex I (NADH:UQ1 oxidoreductase); assay: Immunocaptured Complex I NADH:UQ1 oxidoreductase microplate activity assay; type: biochemical; conditions: 16 μg heart mitochondria per well; 240 ng rotenone (FIG. 27)
Procedure: In brief, 1 μg mAb RAC#24-20D1AB7 was added per well (50 μl of a 20 μg/ml solution in PBS) on a protein G-coated 96-well plate, incubated overnight at 4° C., then washed three times with PBS. Then, heart mitochondria solubilized in lauryl maltoside as previously described and diluted in PBS were added at 16 μg (♦), 8 μg (▪), 4 μg (▴) and 0 μg (●) per well in 50 μl aliquots and incubated at room temperature for 2 hours. The wells then were washed three times with 200 μl/well of 20 mM Tris/HCl, pH 7.5, 50 mM KCl, 0.015% lauryl maltoside. A phospholipid solution (see below) was added at 40 μl/well, incubated for 45 minutes at 4° C. and then 200 μl of assay solution (25 mM KPi pH 7.2, 5 mM MgCl2, 2 mM KCN, 260 μM NADH, and 200 μM UQ1) was added directly to the phospholipid solution. The oxidation of NADH was measured by following the decrease of the absorbance at 340 nm. Absorbance changes were measured at 340 nm with a Victor2 from Perkin Elmer for two hours.
The phospholipid stock solution was made by mixing 0.76 ml of 10 mg/ml egg-yolk phosphatidyl choline, 0.38 ml of 5 mg/ml egg-yolk phosphatidylethanolamine, and 0.1 ml of 5 mg/ml cardiolipin in round bottom flask. This mixture was dried under N2, resuspended in 4.25 ml buffer I (20 mM Tris/HCl pH 7.5, 50 mM KCl), and vortexed. […]

[5] = target: Complex IV (Bos taurus, UniProt P00396)
Procedure: as §1, §2
Complex IV. The Complex IV reaction buffer solution contained 0.5 mg/ml 3,3′ diaminobenzidine-tetrachloride (DAB) and 0.1 mM reduced cytochrome c in PBS, pH 7.4. […]

[6] = system: human fibroblasts (cell strain MRC5); type: cell-based
Procedure: Normal, human fibroblasts (cell strain MRC5) were treated with DCC for five to seven population doublings. Complex IV subunit I in treated fibroblasts was detected immunocytochemically with mAb RAC#18-1D6E1A8 using standard protocols (Janes et al., J. Histochem. Cytochem., 52: 1011-1018, 2004; RAC#18-1D6E1A8 is commercially available from Molecular Probes, MitoScience, and Abcam). Subunit I levels were determined relative to mitochondrial mass measured by porin content (a mitochondrial outer membrane protein encoded by nuclear DNA). Porin content was also determined immunocytochemically using porin-specific mAb 31HL (available from Calbiochem). mtDNA depletion in DCC-treated fibroblasts was detected using real time PCR and FISH with a mtDNA probe in accordance with commonly used methods (see, Janes et al., J. Histochem. Cytochem., 52: 1011-1018, 2004).

[7] = target: human mtDNA polymerase γ (Homo sapiens, UniProt P54098); conditions: cited from earlier work
Chain of human mtDNA polymerase γ (P54098 whole entry): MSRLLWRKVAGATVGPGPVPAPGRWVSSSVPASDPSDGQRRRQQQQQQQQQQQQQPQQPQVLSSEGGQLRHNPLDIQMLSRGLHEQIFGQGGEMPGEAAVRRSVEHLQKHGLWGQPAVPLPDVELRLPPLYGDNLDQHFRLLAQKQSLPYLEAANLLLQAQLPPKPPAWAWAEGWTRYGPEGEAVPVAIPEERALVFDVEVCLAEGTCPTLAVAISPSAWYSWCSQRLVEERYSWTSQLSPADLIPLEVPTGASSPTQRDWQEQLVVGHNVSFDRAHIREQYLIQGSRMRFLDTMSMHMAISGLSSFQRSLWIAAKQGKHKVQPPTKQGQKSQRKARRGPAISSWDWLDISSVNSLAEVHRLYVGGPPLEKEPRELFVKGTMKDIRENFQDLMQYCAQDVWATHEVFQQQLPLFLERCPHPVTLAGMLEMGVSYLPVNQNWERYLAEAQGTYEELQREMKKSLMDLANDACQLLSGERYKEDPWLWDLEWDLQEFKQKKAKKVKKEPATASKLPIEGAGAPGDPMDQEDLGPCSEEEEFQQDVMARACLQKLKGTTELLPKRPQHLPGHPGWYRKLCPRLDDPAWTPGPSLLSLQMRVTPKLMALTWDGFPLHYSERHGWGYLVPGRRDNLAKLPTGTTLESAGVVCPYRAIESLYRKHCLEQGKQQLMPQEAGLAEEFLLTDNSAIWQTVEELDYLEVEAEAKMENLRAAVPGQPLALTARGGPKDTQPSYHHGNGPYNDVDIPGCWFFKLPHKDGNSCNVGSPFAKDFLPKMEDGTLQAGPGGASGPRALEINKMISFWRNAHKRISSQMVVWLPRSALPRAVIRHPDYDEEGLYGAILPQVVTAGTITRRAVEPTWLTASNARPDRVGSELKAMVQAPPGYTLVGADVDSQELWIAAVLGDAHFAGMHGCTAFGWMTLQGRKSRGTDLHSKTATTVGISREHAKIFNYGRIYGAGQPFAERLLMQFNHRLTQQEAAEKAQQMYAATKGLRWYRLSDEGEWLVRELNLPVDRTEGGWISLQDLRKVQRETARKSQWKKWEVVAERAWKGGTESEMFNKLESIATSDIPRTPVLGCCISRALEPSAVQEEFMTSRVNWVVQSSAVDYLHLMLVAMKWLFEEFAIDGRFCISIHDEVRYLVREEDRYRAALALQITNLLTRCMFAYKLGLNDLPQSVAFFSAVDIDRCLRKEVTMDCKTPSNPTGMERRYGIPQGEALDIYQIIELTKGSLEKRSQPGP

[8] = target: T3, Complex IV (cytochrome c oxidase) (Bos taurus, UniProt P00396); assay: Complex IV (cytochrome c oxidase) activity, ferrocytochrome c oxidation at 550 nm; type: biochemical, bovine; conditions: mitochondrial membranes exposed to up to 1600 μM; membranes and isolated enzyme (FIG. 24A)
T3 construct: from tissue; host or cells: bovine heart mitochondria
Procedure: 4. Fe^3Fe^2+ Catalyzed Oxidation of Mitochondria. Mitochondria at 5 mg/mL in 25 mM KH2PO4 pH 7.2, 5 mM MgCl2 were incubated for 0, 0.5, 1, 2, or 4 hours with 1 mM FeCl3/25 mM sodium ascorbate. Incubation could not be performed for less than 0.5 h because iron could only be removed by rapid dialysis, which was performed for 30 min against 25 mM potassium phosphate pH 7.2, 5 mM MgCl2 using 12000 Da MWCO dialysis membrane (Spectrapor). After oxidation, mitochondrial membranes were subjected to the Complex IV activity assay described below. The Complex IV enzyme was then isolated by the immunocapture extraction method above.
5. Peroxynitrite Catalyzed Oxidation of Mitochondria. […] Following this oxidative treatment, Complex IV activity was measured before and after Complex IV immunocapture.
6. […] Potassium cyanide-sensitive Complex IV activity was measured in bovine heart mitochondria or with immunopurified isolated enzyme. […] Reduced bovine heart cytochrome c was purified over a Sephadex G-15 (Pharmacia) column equilibrated with assay buffer, collected in 1 mL fractions, and the concentration measured at 550 nm in a Beckman DU7. The oxidation of ferrocytochrome c was followed at 550 nm in a 1 mL reaction vessel in the DU7 or in a 96 well plate (Corning) using a Victor2 1460 multi-plate reader (Perkin-Elmer) with a narrow band pass 550 nm filter. […]

[9] = system: human mitochondrial F1/F0 ATPase (Complex V); assay: ATPase activity of immunocaptured F1/F0 ATPase, 96-well; type: biochemical
Procedure: Solubilization. Samples were thawed and placed in 25 mM HEPES pH 7.5 (to dissociate F1F0/IF1 interactions) or 10 mM […] (Anatrace) pH 6.5 (to retain F1F0/IF1 interactions), containing 0.4% (w/v) […], and the protease inhibitors leupeptin (0.5 μg/ml), pepstatin (0.5 μg/ml) and PMSF (1 mM). Mitochondria were solubilized at 5 mg/ml and whole cells were solubilized at 2×10^7 cells/ml. Samples were mixed well and then kept on ice for 30 minutes with occasional agitation. Insoluble material was then removed by centrifugation at 16,000×g for 20 minutes at 4° C.
Immunocapture. Assays were run in 96-well plates (Falcon Probind™) using 100 μl/well. […] To control for non-specific adsorption of ATPase, a non-specific mouse monoclonal antibody was used as a null capture mAb. Wells were then loaded with solubilized test samples diluted in TBS with 2.5% BSA, incubated for 2 hours at room temperature and then washed 4 times with TBS.
ATPase activity. ATPase reaction buffer (25 mM HEPES pH 7.5 or 10 mM MOPS pH 6.5, with 25 mM KCl, 5 mM MgCl2, 5 mM KCN and 2 mM ATP) was added at 100 μl/well and incubated for 3 hours at 37° C. The reaction was stopped and free Pi generated by ATP hydrolysis was detected essentially as described by Walker et al. (Meth. Enzymol., 260: 163-190, 1995) by addition of 0.5% ammonium molybendate in 0.7 M H2SO4 (42 μl/well) followed by 10% ascorbic acid (4 μl/well). After incubation for 30 minutes at room temperature to allow color development, absorbance was measured at 690 nm.
IF1 Stripping Conditions. IF1 was dissociated from previously immunocaptured IF1/F1F0 complexes by exposure to IF1 stripping buffer (30 mM Tris-sulfate pH 8, 250 mM KCl, 2 mM EDTA, 75 mM sucrose) for 30 minutes at 37° C. (Van Raaij et al., Biochem. 35: 15618-15625, 1996). The wells were then washed with either a pH 7.5 wash buffer (TBS) or a pH 6.5 wash buffer (10 mM MOPS pH 6.5, 150 mM NaCl and 1 mM MgCl2), and ATPase activity measured at either pH 7.5 or pH 6.5 as described above.
IF1 Addition Conditions. Recombinant human IF1 was obtained by PCR-based amplification of the appropriate gene from a human heart CDNA library (Clontech), cloning into pET15b (Novagen), transformation of E. coli and overexpression and purification of the His-tagged protein on a Ni column by standard protocols (Novagen). Isolated protein was diluted in pH 6.5 wash buffer (as described above) containing 1 mM ATP and incubated with previously immunocaptured F1F0. The wells were then washed with pH 6.5 wash buffer and ATPase activity measured at pH 6.5 as described above.

With Complex V (F1/F0 ATPase), human the ATP hydrolysis activity [1] was “addition of recombinant IF1, which reduced the rate of ATP hydrolysis to that before stripping” and the ATP hydrolysis activity [2] was “the enzyme could be greatly activated (>10-fold) by conditions that strip the IF1 from the protein”.

In the case of `c1ccc2c(c1)[I+]c1ccccc1-2` [DPI, diphenyleneiodonium], the “effect on Complex I activity dipstick signal” value [3] is reported as “reduced signal”.

With `C=C(C)[C@H]1Cc2c(ccc3c2O[C@@H]2COc4cc(OC)c(OC)cc4[C@@H]2C3=O)O1` [rotenone] the “fraction of immunocaptured NADH:UQ1 oxidoreductase activity sensitive to inhibition” value [4] was “approximately 30%”.

In the case of `[N-]=[N+]=[N-]` [azide], the “inhibition of oxidase activity in the Complex IV capture zone” value [5] is reported as “near complete inhibition”.

In the case of `Nc1ccn([C@H]2CC[C@@H](CO)O2)c(=O)n1` [DDC, zalcitabine], the “depletion of mtDNA from fibroblasts” value [6] is given as “within three population doublings” and the “inhibition of isolated human mtDNA polymerase γ (hierarchy DDC≧DDI≧D4T≧3TC≧AZT≧ABV)” value [7] is given as “inhibited most dramatically”.

With `O=NOO` [peroxynitrite] the “inhibition of Complex IV” value [8] was about 50%.

B1: recombinant IF1: His-tagged recombinant human inhibitor protein of F1/F0 ATPase expressed in E. coli (protein)
chain: T1 sequence
modifications: left off: small tags and cut ends
For B1, the “effect on stripped F1/F0 ATPase from GM00028 and MRC5 cells” value ([9]; 5 μg/ml (FIG. 9)) was “inhibited” and the “effect on ATP hydrolysis of IF1-stripped immunocaptured F1/F0 ATPase” value ([9]; human heart mitochondria, assayed at pH 6.5 (FIG. 6)) was “reduced the rate of ATP hydrolysis to that before stripping”.
